From US9180116B2, “Difluorolactam compounds as EP4 receptor-selective agonists for use in the treatment of EP4-mediated diseases and conditions” (Cayman Chemical Company, Inc., priority 2012, dated 2015)
Where two headings read alike, the source gives them in different places.

Experiments:
[1] = biological target: Human Prostanoid EP4 Receptor (Homo sapiens (Human), UniProt P35408); assay: Radioligand binding assay, agonist site of human prostanoid EP4 receptor in transfected HEK-293 cells; conditions: for IC50: read-out: hEP4 receptor binding IC50; for Ki: read-out: hEP4 receptor binding Ki
Protocol: Radioligand Binding Assay for the Evaluation of the Affinity of Compounds for the Agonist Site of the Human Prostanoid EP4 Receptor in Transfected HEK-293 Cells
Following incubation, the samples are filtered rapidly under vacuum through glass fiber filters (GF/B, Packard) presoaked with 0.3% PEI and rinsed several times with ice-cold 50 mM Tris-HCl using a 96-sample cell harvester (Unifilter, Packard). The filters are dried then counted for radioactivity in a scintillation counter (Topcount, Packard) using a scintillation cocktail (Microscint 0, Packard).

[2] = biological target: T1, rat EP4 receptor (Rattus norvegicus (Rat), UniProt P43114); assay: cAMP level assay for EP4 agonist (STEP plate format); assay type: cell-based; conditions: read-out: STEP cell functional assay EC50 cAMP/EP4
Description: (§1) Functional Cellular Assays (STEP Plate Format)
Procedure of cAMP Assay for EP2/EP4 Agonist
(§2) 3. […] In addition each concentration had triplicates.
6. Aspirate the supernatant.

[3] = biological target: T1, rat EP4 receptor; assay: SEAP activity assay for EP4 agonist (STEP plate format); assay type: cell-based
Description: as §1
(§3) Procedure of SEAP Activity Assay for EP2/EP4 Agonist
as §2
(§4) 4. […] Cover the plate with the lid.

[4] = biological target: rat EP2 receptor (Rattus norvegicus (Rat), UniProt Q62928); assay: SEAP activity assay for EP2 agonist (STEP plate format); assay type: cell-based; conditions: read-out: STEP cell functional assay EC50 SEAP/EP2
Description: as §1, §3, §2, §4

[5] = [3H]PGE2 0.5 nM, HEK-293 cell membrane homogenates
[6] = cAMP by ELISA, 30 minutes, 500 μM IBMX
[7] = SEAP luminescence, 6-8 hours of stimulation, read-out: STEP cell functional assay EC50 SEAP/EP4
[8] = SEAP luminescence, 6-8 hours of stimulation

Sequence of Human Prostanoid EP4 Receptor (P35408 whole entry): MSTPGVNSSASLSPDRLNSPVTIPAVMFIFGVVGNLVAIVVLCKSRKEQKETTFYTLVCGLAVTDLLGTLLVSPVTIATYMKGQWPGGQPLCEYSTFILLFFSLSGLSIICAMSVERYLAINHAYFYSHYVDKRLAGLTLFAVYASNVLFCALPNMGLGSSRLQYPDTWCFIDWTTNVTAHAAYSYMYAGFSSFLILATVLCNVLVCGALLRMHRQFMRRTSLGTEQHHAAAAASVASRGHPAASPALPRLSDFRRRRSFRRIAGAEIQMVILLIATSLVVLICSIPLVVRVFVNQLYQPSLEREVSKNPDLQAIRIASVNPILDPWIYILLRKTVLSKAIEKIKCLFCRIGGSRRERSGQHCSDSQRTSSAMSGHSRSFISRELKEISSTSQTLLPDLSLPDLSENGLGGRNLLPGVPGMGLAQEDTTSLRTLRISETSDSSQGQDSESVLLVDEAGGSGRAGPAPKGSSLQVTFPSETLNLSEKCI
T1 sequence (P43114 whole entry): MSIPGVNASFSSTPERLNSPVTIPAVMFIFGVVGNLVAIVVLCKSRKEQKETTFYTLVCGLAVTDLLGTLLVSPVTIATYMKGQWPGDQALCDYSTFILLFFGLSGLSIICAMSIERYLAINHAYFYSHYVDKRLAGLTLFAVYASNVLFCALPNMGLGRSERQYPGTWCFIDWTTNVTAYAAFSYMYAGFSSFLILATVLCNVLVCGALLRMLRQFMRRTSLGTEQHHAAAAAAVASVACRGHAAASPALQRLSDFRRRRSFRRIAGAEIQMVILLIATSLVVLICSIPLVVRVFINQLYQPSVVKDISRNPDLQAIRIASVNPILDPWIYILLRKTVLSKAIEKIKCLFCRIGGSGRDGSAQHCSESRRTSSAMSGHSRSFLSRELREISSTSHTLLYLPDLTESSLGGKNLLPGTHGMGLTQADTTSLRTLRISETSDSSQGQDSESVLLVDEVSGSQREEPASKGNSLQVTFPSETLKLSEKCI
Sequence of rat EP2 receptor (Q62928 whole entry): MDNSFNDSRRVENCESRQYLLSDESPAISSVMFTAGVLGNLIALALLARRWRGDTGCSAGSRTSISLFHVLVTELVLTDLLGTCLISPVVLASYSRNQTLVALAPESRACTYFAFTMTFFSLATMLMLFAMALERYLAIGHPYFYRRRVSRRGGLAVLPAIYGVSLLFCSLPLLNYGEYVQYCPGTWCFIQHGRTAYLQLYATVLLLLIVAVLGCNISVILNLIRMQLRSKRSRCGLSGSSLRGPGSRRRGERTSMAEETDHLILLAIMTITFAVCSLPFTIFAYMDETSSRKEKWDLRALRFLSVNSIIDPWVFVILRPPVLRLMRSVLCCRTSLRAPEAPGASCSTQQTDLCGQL

CC#CC[C@H](C)[C@H](O)/C=C/[C@H]1CC(F)(F)C(=O)N1CCCCCCC(=O)O [Example 1F, 7-((R)-3,3-difluoro-5-((3S,4S,E)-3-hydroxy-4-methyloct-1-en-6-yn-1-yl)-2-oxopyrrolidin-1-yl)heptanoic acid]
IC50 [1, 5]: 1.2 nM
Ki [1, 5]: 0.44 nM
EC50 [2, 6]: 0.15 nM
EC50 [3, 7]: 0.059 nM

CCCCC[C@H](O)/C=C/[C@H]1CC(F)(F)C(=O)N1CCCCCCC(=O)O [Example 9C, 7-((R)-3,3-difluoro-5-((S,E)-3-hydroxyoct-1-en-1-yl)-2-oxopyrrolidin-1-yl)heptanoic acid]
IC50 [1, 5]: 0.57 nM
Ki [1, 5]: 0.21 nM
EC50 [2, 6]: 0.37 nM
EC50 [3, 7]: 0.059 nM
EC50 [4, 8]: 205 ± 124 nM

O=C(O)CCCCCCN1C(=O)C(F)(F)C[C@@H]1/C=C/[C@@H](O)CCCCc1ccccc1 [Example 10C, 7-((R)-3,3-difluoro-5-((S,E)-3-hydroxy-7-phenylhept-1-en-1-yl)-2-oxopyrrolidin-1-yl)heptanoic acid]
IC50 [1, 5]: 4.9 nM
Ki [1, 5]: 1.8 nM
EC50 [2, 6]: 1.1 nM
EC50 [3, 7]: 0.01 nM

CCC#CC[C@H](C)[C@H](O)/C=C/[C@H]1CC(F)(F)C(=O)N1CCc1ccc(C(=O)O)cc1 [Example 12D, 4-(2-((R)-3,3-difluoro-5-((3S,4S,E)-3-hydroxy-4-methylnon-1-en-6-yn-1-yl)-2-oxopyrrolidin-1-yl)ethyl)benzoic acid]
IC50 [1, 5]: 0.32 nM
Ki [1, 5]: 0.12 nM
EC50 [2, 6]: 0.047 nM
EC50 [3, 7]: 0.035 nM
EC50 [4, 8]: 1630 nM

CCCCC[C@H](O)/C=C/[C@H]1CC(F)(F)C(=O)N1CCc1ccc(C(=O)O)cc1 [Example 21C, 4-(2-((R)-3,3-difluoro-5-((S,E)-3-hydroxyoct-1-en-1-yl)-2-oxopyrrolidin-1-yl)ethyl)benzoic acid]
IC50 [1, 5]: 0.22 nM
Ki [1, 5]: 0.082 nM
EC50 [2, 6]: 0.61 nM
EC50 [3, 7]: 0.075 nM
EC50 [4, 8]: 1960 nM

C[C@@H](CCCc1ccccc1)[C@H](O)/C=C/[C@H]1CC(F)(F)C(=O)N1CCCc1ccc(C(=O)O)s1 [Example 28C, 5-(3-((R)-3,3-difluoro-5-((3S,4S,E)-3-hydroxy-4-methyl-7-phenylhept-1-en-1-yl)-2-oxopyrrolidin-1-yl)propyl)thiophene-2-carboxylic acid]
IC50 ([1]; human EP4 receptor binding): 0.74 nM
Ki ([1]; human EP4 receptor binding): 0.28 nM
EC50 ([2]; cAMP readout, EP4): 0.01 ± 0.021 nM
EC50 ([4]; SEAP readout, EP2): 148 ± 5 nM

C[C@@H](CCCc1ccccc1)[C@@H](O)/C=C/[C@H]1CC(F)(F)C(=O)N1CCCc1ccc(C(=O)O)s1 [Example 28D, 5-(3-((R)-3,3-difluoro-5-((3R,4S,E)-3-hydroxy-4-methyl-7-phenylhept-1-en-1-yl)-2-oxopyrrolidin-1-yl)propyl)thiophene-2-carboxylic acid]
EC50 ([2]; cAMP readout, EP4): 5.68 nM

COC(=O)c1ccc(CCCN2C(=O)C(F)(F)C[C@@H]2/C=C/[C@H](O)[C@H](C)CCCc2ccccc2)s1 [Example 28F, methyl 5-(3-((R)-3,3-difluoro-5-((3R,4R,E)-3-hydroxy-4-methyl-7-phenylhept-1-en-1-yl)-2-oxopyrrolidin-1-yl)propyl)thiphene-2-carboxylate]
EC50 ([2]; cAMP readout, EP4): > 1000 nM

C[C@H](CCCc1ccccc1)[C@H](O)/C=C/[C@H]1CC(F)(F)C(=O)N1CCCc1ccc(C(=O)O)s1 [Example 28G, 5-(3-((R)-3,3-difluoro-5-((3S,4R,E)-3-hydroxy-4-methyl-7-phenylhept-1-en-1-yl)-2-oxopyrrolidin-1-yl)propyl)thiphene-2-carboxylic acid]
EC50 ([2]; cAMP readout, EP4): 0.0162 nM
EC50 ([4]; SEAP readout, EP2): 65 nM

C[C@H](CCCc1ccccc1)[C@@H](O)/C=C/[C@H]1CC(F)(F)C(=O)N1CCCc1ccc(C(=O)O)s1 [Example 28H, 5-(3-((R)-3,3-difluoro-5-((3R,4R,E)-3-hydroxy-4-methyl-7-phenylhept-1-en-1-yl)-2-oxopyrrolidin-1-yl)propyl)thiphene-2-carboxylic acid]
EC50 ([2]; cAMP readout, EP4): 3.15 nM

C[C@@H](c1ccccc1)[C@H](O)/C=C/[C@H]1CC(F)(F)C(=O)N1CCCc1ccc(C(=O)O)s1 [Example 35C, 5-(3-((R)-3,3-difluoro-5-((3R,4S,E)-3-hydroxy-4-phenylpent-1-en-1-yl)-2-oxopyrrolidin-1-yl)propyl)thiophene-2-carboxylic acid]
EC50 ([2]; cAMP readout, EP4): 62 nM

COC(=O)c1ccc(CCCN2C(=O)C(F)(F)C[C@@H]2/C=C/[C@@H](O)[C@@H](C)Cc2ccccc2)s1 [Example 36A, methyl 5-(3-((R)-3,3-difluoro-5-((3S,4S,E)-3-hydroxy-4-methyl-5-phenylpent-1-en-1-yl)-2-oxopyrrolidin-1-yl)propyl)thiophene-2-carboxylate]
EC50 ([2]; cAMP readout, EP4): 5.02 nM

COC(=O)c1ccc(CCCN2C(=O)C(F)(F)C[C@@H]2/C=C/[C@H](O)[C@@H](C)Cc2ccccc2)s1 [Example 36B, methyl 5-(3-((R)-3,3-difluoro-5-((3R,4S,E)-3-hydroxy-4-methyl-5-phenylpent-1-en-1-yl)-2-oxopyrrolidin-1-yl)propyl)thiophene-2-carboxylate]
EC50 ([2]; cAMP readout, EP4): > 1000 nM

C[C@@H](Cc1ccccc1)[C@H](O)/C=C/[C@H]1CC(F)(F)C(=O)N1CCCc1ccc(C(=O)O)s1 [Example 36C, 5-(3-((R)-3,3-difluoro-5-((3S,4S,E)-3-hydroxy-4-methyl-5-phenylpent-1-en-1-yl)-2-oxopyrrolidin-1-yl)propyl)thiophene-2-carboxylic acid]
EC50 ([2]; cAMP readout, EP4): 0.038 nM
EC50 ([4]; SEAP readout, EP2): 1000 nM

COC(=O)c1ccc(CCCN2C(=O)C(F)(F)C[C@@H]2/C=C/[C@@H](O)[C@@H](C)CCc2ccccc2)s1 [Example 37A, methyl 5-(3-((R)-3,3-difluoro-5-((3S,4S,E)-3-hydroxy-4-methyl-6-phenylhex-1-en-1-yl)-2-oxopyrrolidin-1-yl)propyl)thiophene-2-carboxylate]
EC50 ([2]; cAMP readout, EP4): 8.09 nM

COC(=O)c1ccc(CCCN2C(=O)C(F)(F)C[C@@H]2/C=C/[C@@H](O)[C@@H](C)CCCCc2ccccc2)s1 [Example 38A, methyl 5-(3-((R)-3,3-difluoro-5-((3S,4S,E)-3-hydroxy-4-methyl-8-phenyloct-1-en-1-yl)-2-oxopyrrolidin-1-yl)propyl)thiophene-2-carboxylate]
EC50 ([2]; cAMP readout, EP4): > 1000 nM

COC(=O)c1ccc(CCCN2C(=O)C(F)(F)C[C@@H]2/C=C/[C@H](O)[C@@H](C)CCCCc2ccccc2)s1 [Example 38B, methyl 5-(3-((R)-3,3-difluoro-5-((3R,4S,E)-3-hydroxy-4-methyl-8-phenyloct-1-en-1-yl)-2-oxopyrrolidin-1-yl)propyl)thiophene-2-carboxylate]
EC50 ([2]; cAMP readout, EP4): > 1000 nM

C[C@@H](CCCCc1ccccc1)[C@H](O)/C=C/[C@H]1CC(F)(F)C(=O)N1CCCc1ccc(C(=O)O)s1 [Example 38C, 5-(3-((R)-3,3-difluoro-5-((3S,4S,E)-3-hydroxy-4-methyl-8-phenyloct-1-en-1-yl)-2-oxopyrrolidin-1-yl)propyl)thiophene-2-carboxylic acid]
EC50 ([4]; SEAP readout, EP2): 157 nM

C[C@@H](CCCCc1ccccc1)[C@@H](O)/C=C/[C@H]1CC(F)(F)C(=O)N1CCCc1ccc(C(=O)O)s1 [Example 38D, 5-(3-((R)-3,3-difluoro-5-((3R,4S,E)-3-hydroxy-4-methyl-8-phenyloct-1-en-1-yl)-2-oxopyrrolidin-1-yl)propyl)thiophene-2-carboxylic acid]
EC50 ([2]; cAMP readout, EP4): 0.37 nM
EC50 ([4]; SEAP readout, EP2): > 10000 nM

COC(=O)c1ccc(CCCN2C(=O)C(F)(F)C[C@@H]2/C=C/[C@@H](O)[C@@H](C)CCCCCc2ccccc2)s1 [Example 39A, methyl 5-(3-((R)-3,3-difluoro-5-((3S,4S,E)-3-hydroxy-4-methyl-9-phenylnon-1-en-1-yl)-2-oxopyrrolidin-1-yl)propyl)thiophene-2-carboxylate]
EC50 ([2]; cAMP readout, EP4): > 1000 nM

COC(=O)c1ccc(CCCN2C(=O)C(F)(F)C[C@@H]2/C=C/[C@H](O)[C@@H](C)CCCCCc2ccccc2)s1 [Example 39B, methyl 5-(3-((R)-3,3-difluoro-5-((3R,4S,E)-3-hydroxy-4-methyl-9-phenylnon-1-en-1-yl)-2-oxopyrrolidin-1-yl)propyl)thiophene-2-carboxylate]
EC50 ([2]; cAMP readout, EP4): > 1000 nM

C[C@@H](CCCCCc1ccccc1)[C@H](O)/C=C/[C@H]1CC(F)(F)C(=O)N1CCCc1ccc(C(=O)O)s1 [Example 39C, 5-(3-((R)-3,3-difluoro-5-((3S,4S,E)-3-hydroxy-4-methyl-9-phenylnon-1-en-1-yl)-2-oxopyrrolidin-1-yl)propyl)thiophene-2-carboxylic acid]
EC50 ([4]; SEAP readout, EP2): 1020 nM

C[C@@H](CCCCCc1ccccc1)[C@@H](O)/C=C/[C@H]1CC(F)(F)C(=O)N1CCCc1ccc(C(=O)O)s1 [Example 39D, 5-(3-((R)-3,3-difluoro-5-((3R,4S,E)-3-hydroxy-4-methyl-9-phenylnon-1-en-1-yl)-2-oxopyrrolidin-1-yl)propyl)thiophene-2-carboxylic acid]
EC50 ([2]; cAMP readout, EP4): 0.059 nM
EC50 ([4]; SEAP readout, EP2): 79000 nM

CCCCC[C@H](O)/C=C/[C@H]1[C@H](O)CC(=O)[C@@H]1CCCCCCC(=O)O [PGE1, reference compound]
EC50 [4, 8]: 16.5 nM
